Values of other authors as cited in patent publication US6767507B1, “Uncomplexed cyclodextrin compositions for odor control” (The Procter & Gamble Company, priority 1998, dated 2004).

conditions: not given

| SMILES | solubility in water |
| --- | --- |
| ClC=CC[N+]12CN3CN(CN(C3)C1)C2.[Cl-] [Dowicil 200, 1-(3-Chlorallyl)-3,5,7-triaza-1-azoniaadamantane chloride] | freely soluble in water |

same assay, conditions: in water

| water solubility | SMILES |
| --- | --- |
| more than 50% | CC1(C)C(=O)N(CO)C(=O)N1CO [DMDM hydantoin, 1,3-bis(hydroxymethyl)-5,5-dimethyl-2,4-imidazolidinedione] |
| about 4% | OCc1ccccc1 [benzyl alcohol] |
| about 1.8% | [H]/N=C(\N/C(=N/[H])NCCCCCCNC(=N)NC(=N)Nc1ccc(Cl)cc1)Nc1ccc(Cl)cc1 [chlorhexidine diacetate, 1,1′-hexamethylene bis(5-(p-chlorophenyl)biguanide), reference compound] |
| about 70% | [H]/N=C(\N/C(=N/[H])NCCCCCCNC(=N)NC(=N)Nc1ccc(Cl)cc1)Nc1ccc(Cl)cc1 [chlorhexidine digluconate, 1,1′-hexamethylene bis(5-(p-chlorophenyl)biguanide), reference compound] |
| about 0.8% | CC(C)(O)C(Cl)(Cl)Cl [chlorobutanol, 1,1,1-Trichloro-2-methylpropan-2-ol] |

The remaining lines, values behind:

| SMILES | water solubility |
| --- | --- |
| OCCOc1ccccc1 [2-phenoxyethanol] | about 2.67% |
| OCCc1ccccc1 [2-phenylethanol] | about 2% |
| O=[N+]([O-])C1(Br)COCOC1 [Bronidox L, 5-bromo-5-nitro-1,3-dioxane] | about 0.46% |
| [Na+].[O-][n+]1ccccc1[S-] [sodium pyrithione] | about 50% |
